Here are results for 31 compounds from patent US8815882B2, “Pyrazole aminopyrimidine derivatives as LRRK2 modulators” (Genentech, Inc., priority 2010, dated 2014).

What is called Ki is a dissociation constant, usually derived from enzyme kinetics or from competition with a known ligand.

Each structure is given as a SMILES string.

T1 sequence (Q5S007 whole entry G2019S): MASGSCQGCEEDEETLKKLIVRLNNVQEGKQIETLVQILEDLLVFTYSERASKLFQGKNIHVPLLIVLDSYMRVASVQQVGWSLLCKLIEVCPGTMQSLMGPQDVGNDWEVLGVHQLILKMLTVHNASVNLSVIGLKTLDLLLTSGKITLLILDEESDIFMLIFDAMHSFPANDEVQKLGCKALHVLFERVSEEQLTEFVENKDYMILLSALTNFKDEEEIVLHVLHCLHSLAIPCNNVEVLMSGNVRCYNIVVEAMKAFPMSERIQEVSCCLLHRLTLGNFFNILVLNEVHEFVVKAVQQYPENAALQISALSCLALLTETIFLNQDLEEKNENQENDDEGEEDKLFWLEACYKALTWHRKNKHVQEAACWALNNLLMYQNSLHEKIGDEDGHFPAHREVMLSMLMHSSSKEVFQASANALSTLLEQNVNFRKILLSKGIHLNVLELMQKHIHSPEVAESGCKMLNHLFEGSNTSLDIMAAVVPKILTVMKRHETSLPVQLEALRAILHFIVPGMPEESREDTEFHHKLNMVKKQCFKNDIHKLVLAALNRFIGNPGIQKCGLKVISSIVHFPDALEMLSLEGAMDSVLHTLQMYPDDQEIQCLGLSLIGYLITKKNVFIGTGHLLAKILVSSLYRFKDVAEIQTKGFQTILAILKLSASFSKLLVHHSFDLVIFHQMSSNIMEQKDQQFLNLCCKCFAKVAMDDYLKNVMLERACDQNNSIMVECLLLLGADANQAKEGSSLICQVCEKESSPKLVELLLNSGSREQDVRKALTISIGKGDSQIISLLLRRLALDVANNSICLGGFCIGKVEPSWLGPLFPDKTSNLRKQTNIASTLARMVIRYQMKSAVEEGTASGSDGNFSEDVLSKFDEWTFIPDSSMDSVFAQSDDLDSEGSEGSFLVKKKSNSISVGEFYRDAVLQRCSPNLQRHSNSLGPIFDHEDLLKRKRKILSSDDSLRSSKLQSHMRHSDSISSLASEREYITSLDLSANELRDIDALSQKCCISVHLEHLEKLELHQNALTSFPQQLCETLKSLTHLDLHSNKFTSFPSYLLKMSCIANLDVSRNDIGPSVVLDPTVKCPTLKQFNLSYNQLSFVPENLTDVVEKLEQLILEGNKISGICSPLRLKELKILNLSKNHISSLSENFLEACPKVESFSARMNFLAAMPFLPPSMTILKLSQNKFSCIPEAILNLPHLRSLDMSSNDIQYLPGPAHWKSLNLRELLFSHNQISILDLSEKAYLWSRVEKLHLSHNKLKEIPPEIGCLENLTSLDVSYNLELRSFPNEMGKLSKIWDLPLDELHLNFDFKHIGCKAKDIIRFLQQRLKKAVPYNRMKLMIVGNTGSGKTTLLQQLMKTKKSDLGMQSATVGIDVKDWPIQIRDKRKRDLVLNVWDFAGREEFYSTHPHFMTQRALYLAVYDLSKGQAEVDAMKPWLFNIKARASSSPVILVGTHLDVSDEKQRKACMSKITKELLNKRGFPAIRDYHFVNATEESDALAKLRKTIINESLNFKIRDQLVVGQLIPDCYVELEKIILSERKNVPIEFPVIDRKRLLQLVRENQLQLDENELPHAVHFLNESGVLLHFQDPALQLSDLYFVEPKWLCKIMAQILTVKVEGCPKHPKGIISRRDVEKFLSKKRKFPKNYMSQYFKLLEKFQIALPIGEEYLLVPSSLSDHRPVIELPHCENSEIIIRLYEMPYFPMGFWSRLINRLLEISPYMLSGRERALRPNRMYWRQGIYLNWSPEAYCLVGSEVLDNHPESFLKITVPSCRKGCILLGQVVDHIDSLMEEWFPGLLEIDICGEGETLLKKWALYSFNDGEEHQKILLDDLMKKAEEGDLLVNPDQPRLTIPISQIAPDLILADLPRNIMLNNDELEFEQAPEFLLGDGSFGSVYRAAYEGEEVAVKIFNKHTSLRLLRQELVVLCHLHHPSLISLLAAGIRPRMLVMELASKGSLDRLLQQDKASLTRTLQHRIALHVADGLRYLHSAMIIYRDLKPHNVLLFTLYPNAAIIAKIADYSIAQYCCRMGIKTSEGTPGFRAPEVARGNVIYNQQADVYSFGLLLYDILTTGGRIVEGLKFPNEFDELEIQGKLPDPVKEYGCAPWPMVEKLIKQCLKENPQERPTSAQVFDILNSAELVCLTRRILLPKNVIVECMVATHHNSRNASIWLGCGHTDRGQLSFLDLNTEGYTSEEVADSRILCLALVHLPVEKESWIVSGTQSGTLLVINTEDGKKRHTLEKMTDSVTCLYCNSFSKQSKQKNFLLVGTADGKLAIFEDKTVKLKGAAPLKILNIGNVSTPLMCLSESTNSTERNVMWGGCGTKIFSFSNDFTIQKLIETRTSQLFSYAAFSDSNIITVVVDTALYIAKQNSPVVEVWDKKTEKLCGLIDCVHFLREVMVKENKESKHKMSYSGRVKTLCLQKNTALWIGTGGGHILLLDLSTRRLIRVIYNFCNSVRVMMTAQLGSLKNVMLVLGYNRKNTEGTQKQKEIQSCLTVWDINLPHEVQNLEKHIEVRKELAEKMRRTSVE

One test has as its target T1, LRRK2 (Homo sapiens, UniProt Q5S007, G2019S).
T1 construct: purchased Invitrogen PV4882 (lot 567054A)
The test is described as follows: In Vitro LRRK2 Assay (LabChip 3000, fluorescently-labeled peptide substrate, ATP). It counts as biochemical. The settings on record: Table 9; LRRK2 Ki (micromolar); read-out: LRRK2 Ki (KI). The procedure: This assay was used to determine a compound's potency in inhibiting activity of LRRK2 by determining, Kiapp, IC50, or percent inhibition values. In a polypropylene plate, LRRK2, fluorescently-labeled peptide substrate, ATP and test compound were incubated together. Using a LabChip 3000 (Caliper Life Sciences), after the reaction the substrate was separated by capillary electrophoresis into two populations: phosphorylated and unphosphorylated. The relative amounts of each were quantitated by fluorescence intensity. LRRK2 Ki was determined according to the equation: Y=V0*(1−(x+Ki*(1+S/Km)+Et)/(2*Et)−(((x+Ki*(1+S/Km)+Et)^2−(4*Et*x))^0.5)/(2*Et))). Ki values in Table 4 and elsewhere herein are shown in μM.
Assay conditions and materials used were as follows:
Compound Plate Preparation:
For serial dilutions, 34.6 μl DMSO was added to columns 3-24.
Total and Blank Preparation:
In Complete Reaction Buffer, substrate was diluted to 4 μM. Equal volumes of Complete Reaction Buffer and 4 μM substrate were combined to obtain the blank. Equal volumes of Complete Reaction Buffer and 4 μM substrate were combined and to the combined solution was added 2× final LRRK2 concentration.
To a 50 μl polypropylene plate, 5 μl/well buffer/substrate was added by hand to Blank wells. A Biomek FX was used to start the kinase reaction (“PLK SAR 23 ATP”). The following were added to the appropriate wells:
5 μl/well compound/ATP in Assay Plate;
5 μl/well kinase/substrate in Assay Plate;
The plate was incubated for 2 hours in the dark. Biomek FX was used to stop the kinase reaction (“PLK Stop”), and 10 μl/well Stop solution was added to the Assay Plate. Results were read on the LabChip 3000.
The LabChip 3000 was run using the job “LRRK2 IC50” with the following job settings: […]
Turning to `CNc1nc(Nc2cn(C3CCN(CC(F)(F)F)CC3)nc2C)ncc1C#N` [Example 355, 2-(3-methyl-1-(1-(2,2,2-trifluoroethyl)piperidin-4-yl)-1H-pyrazol-4-ylamino)-4-(methylamino) pyrimidine-5-carbonitrile], the inhibitory constant (Ki) came to 299 nM.

Regarding `CNc1nc(Nc2cn(-c3ccccn3)nc2C)ncc1C#N` [Example 370, 2-(3-methyl-1-(pyridin-2-yl)-1H-pyrazol-4-ylamino)-4-(methylamino) pyrimidine-5-carbonitrile], the inhibitory constant (Ki) came out at 41.5 nM.

Turning to `CCn1ncc(Nc2ncc(C#N)c(OC)n2)c1C` [Example 377, 2-(1-ethyl-5-methyl-1H-pyrazol-4-ylamino)-4-methoxypyrimidine-5-carbonitrile], the inhibitory constant (Ki) is 75 nM.

Regarding `CCCn1ncc(Nc2ncc(C#N)c(NC)n2)c1C` [Example 366, 2-(5-methyl-1-propyl-1H-pyrazol-4-ylamino)-4-(methylamino) pyrimidine-5-carbonitrile], the Ki is 5.4 nM.

Still in this test, the particulars now being: Table 10; LRRK2 Ki (micromolar); read-out: LRRK2 Ki (KI).
On to `CNc1nc(Nc2cn(C(C)(C)C#N)nc2C)ncc1Cl` [Example 417, 2-(4-(5-chloro-4-(methylamino)pyrimidin-2-ylamino)-3-methyl-1H-pyrazol-1-yl)-2-methylpropanenitrile], for which the inhibition constant (Ki) stood at 2.1 nM.

Consider `CCNC(=O)C1(n2ncc(Nc3ncc(C(F)(F)F)c(NC)n3)c2C)CCC1` [Example 442, 1-[5-Methyl-4-(4-methylamino-5-trifluoromethyl-pyrimidin-2-ylamino)-pyrazol-1-yl]-cyclobutane-carboxylic acid ethylamide], for which the Ki worked out at 15.6 nM.

As for `CNc1nc(Nc2cnn(CC(=O)N(C)C)c2C)ncc1C(F)(F)F` [Example 395, N,N-dimethyl-2-(5-methyl-4-(4-(methylamino)-5-(trifluoromethyl)pyrimidim-2-ylamino)-1H-pyrazol-1-yl)acetamide], the inhibition constant Ki is 15 nM.

`COc1nc(Nc2cn(C(C)(C)C#N)nc2C2CC2)ncc1Cl` [Example 438, 2-[4-(5-Chloro-4-methoxy-pyrimidin-2-ylamino)-3-cyclopropyl-pyrazol-1-yl]-2-methyl-propionitrile]: the inhibition constant Ki was 5.8 nM.

The test is the same for the next values; noted with them: read-out: LRRK2 Ki (KI), Table 7.
For `COc1nc(Nc2cc(C3CC3)nn2C)ncc1Cl` [Example 39, 5-Chloro-N-(3-cyclopropyl-1-methyl-1H-pyrazol-5-yl)-4-methoxy-pyrimidin-2-amine], the Ki came to 59 nM.

Consider `COc1nc(Nc2cnn(C3CCN(C(=O)C4(C)CC4)CC3)c2C)ncc1Cl` [Example 67, (4-(4-(5-chloro-4-methoxy-pyrimidin-2-ylamino)-5-methyl-1H-pyrazol-1-yl)piperidin-1-yl)(1-methylcyclo-propyl) methanone], for which the inhibitory constant (Ki) stood at 89 nM.

Staying with this test, now noted: read-out: LRRK2 Ki (KI), Table 8.
Consider `CCNc1nc(Nc2cn(S(=O)(=O)CC)nc2C)ncc1C(F)(F)F` [Example 243, N4-ethyl-N2-(1-(ethylsulfonyl)-3-methyl-1H-pyrazol-4-yl)-5-(trifluoromethyl) pyrimidine-2,4-diamine], for which the Ki was found to be 0.5 nM.

Turning to `CNc1nc(Nc2cnn(C)c2CF)ncc1C(F)(F)F` [Example 330, N2-(5-Fluoromethyl-1-methyl-1H-pyrazol-4-yl)-N4-methyl-5-trifluoromethyl-pyrimidine-2,4-diamine], the Ki amounted to 24.5 nM.

For `CNC(=O)C(C)(C)n1ncc(Nc2ncc(C(F)(F)F)c(NC)n2)c1Cl` [Example 237, 2-(5-chloro-4-(4-(methylamino)-5-(trifluoromethyl)pyrimidin-2-ylamino)-1H-pyrazol-1-yl)-N,2-dimethylpropan-amide], the inhibition constant Ki turned out to be 45 nM.

With `CNc1nc(Nc2cnn(C3CCN(C4COC4)CC3F)c2Cl)ncc1C(F)(F)F` (stereo not shown) [Example 305, N2-[5-Chloro-1-(3-fluoro-1-oxetan-3-yl-piperidin-4-yl)-1H-pyrazol-4-yl]-N4-methyl-5-trifluoromethyl-pyrimidine-2,4-diamine], the Ki came out at 2.2 nM.

Consider `CNc1nc(Nc2cn(-c3ccc(S(=O)(=O)C4CC4)cc3)nc2C)ncc1C(F)(F)F` [Example 161, N2-(1-(4-(cyclopropyl-sulfonyl)phenyl)-3-methyl-1H-pyrazol-4-yl)-N4-methyl-5-(trifluoromethyl) pyrimidine-2,4-diamine], for which the Ki turned out to be 0.3 nM.

In the case of `CCNc1nc(Nc2cnn(C3CCN(C4COC4)CC3F)c2Cl)ncc1C(F)(F)F` (stereo not shown) [Example 306, N2-[5-Chloro-1-(3-fluoro-1-oxetan-3-yl-piperidin-4-yl)-1H-pyrazol-4-yl]-N4-ethyl-5-trifluoromethyl-pyrimidine-2,4-diamine], the inhibitory constant (Ki) turned out to be 0.6 nM.

Take `CCNc1nc(Nc2cn(C)nc2C2CCC2)ncc1C(F)(F)F` [Example 281, N2-(3-Cyclobutyl-1-methyl-1H-pyrazol-4-yl)-N4-ethyl-5-trifluoromethyl-pyrimidine-2,4-diamine]: the Ki came out at 1.3 nM.

With `CCNc1nc(Nc2cn(C(C)(C)c3nnc(C)[nH]3)nc2C)ncc1C(F)(F)F` [Example 331, N4-Ethyl-N2-{3-methyl-1-[1-methyl-1-(5-methyl-4H-[1,2,4]triazol-3-yl)-ethyl]-1H-pyrazol-4-yl}-5-trifluoromethyl-pyrimidine-2,4-diamine], the Ki was determined as 0.8 nM.

As for `CNc1nc(Nc2cn(-c3ccc(Cl)cc3)nc2C)ncc1Br` [Example 260, 5-Bromo-N2-[1-(4-chloro-phenyl)-3-methyl-1H-pyrazol-4-yl]-N4-methyl-pyrimidine-2,4-diamine], the inhibitory constant (Ki) worked out at 0.3 nM.

`CNc1nc(Nc2cn(CC(O)C(C)C)nc2C)ncc1C(F)(F)F` (stereo not shown) [Example 321, 3-Methyl-1-[3-methyl-4-(4-methylamino-5-trifluoromethyl-pyrimidin-2-ylamino)-pyrazol-1-yl]-butan-2-ol]: the inhibition constant (Ki) was 10.8 nM.

As to `CNc1nc(Nc2nn(C3CCN(C)CC3)cc2C)ncc1C(F)(F)F` [Example 141, N4-methyl-N2-(4-methyl-1-(1-methylpiperidin-4-yl)-1H-pyrazol-3-yl)-5-(trifluoromethyl) pyrimidine-2,4-diamine], the Ki came out at 41 nM.

As to `CNc1nc(Nc2cnn(Cc3cccnn3)c2C)ncc1C(F)(F)F` [Example 309, N4-Methyl-N2-(5-methyl-1-pyridazin-3-ylmethyl-1H-pyrazol-4-yl)-5-trifluoromethyl-pyrimidine-2,4-diamine], the Ki came to 2.8 nM.

As to `CNc1nc(Nc2cn(C(F)F)nc2C)ncc1Br` [Example 256, 5-Bromo-N2-(1-difluoromethyl-3-methyl-1H-pyrazol-4-yl)-N4-methyl-pyrimidine-2,4-diamine], the inhibition constant Ki was determined as 2.2 nM.

For the compound `CNc1nc(Nc2cnn(Cc3cnccn3)c2C)ncc1C(F)(F)F` [Example 316, N4-Methyl-N2-(5-methyl-1-pyrazin-2-ylmethyl-1H-pyrazol-4-yl)-5-trifluoromethyl-pyrimidine-2,4-diamine], the Ki came out at 2.6 nM.

For `CNc1nc(Nc2cn(-c3ccc(C#N)cc3)nc2C)ncc1C(F)(F)F` [Example 148, 4-(3-methyl-4-(4-(methylamino)-5-(trifluoromethyl)pyrimidin-2-ylamino)-1H-pyrazol-1-yl)benzonitrile], the inhibitory constant (Ki) came out at 0.3 nM.

With `CNc1nc(Nc2cn(C3C[C@@H]4CC[C@@H](C3)O4)nc2C)ncc1C(F)(F)F` (stereo partly drawn) [Example 126, N2-(1-((1S,5S)-8-oxabicyclo[3.2.1]octan-3-yl)-3-methyl-1H-pyrazol-4-yl)-N4-methyl-5-(trifluoromethyl) pyrimidine-2,4-diamine], the inhibition constant (Ki) was 113 nM.

For the compound `CNc1nc(Nc2cn(C(C)(C)c3nnc(C)o3)nc2C)ncc1C(F)(F)F` [Example 339, N4-methyl-N2-(3-methyl-1-(2-(5-methyl-1,3,4-oxadiazol-2-yl)propan-2-yl)-1H-pyrazol-4-yl)-5-(trifluoromethyl) pyrimidine-2,4-diamine], the Ki stood at 11.7 nM.

On to `CNc1nc(Nc2cn(C(F)F)nc2C)ncc1C(F)(F)F` [Example 105, N2-(1-(difluoromethyl)-3-methyl-1H-pyrazol-4-yl)-N4-methyl-5-(trifluoromethyl) pyrimidine-2,4-diamine], for which the inhibitory constant (Ki) is 5.5 nM.

On to `CNc1nc(Nc2cnn(C3CCOC3)c2C)ncc1C(F)(F)F` (stereo not shown) [Example 150, N4-methyl-N2-(5-methyl-1-(tetrahydrofuran-3-yl)-1H-pyrazol-4-yl)-5-(trifluoromethyl) pyrimidine-2,4-diamine], for which the inhibitory constant (Ki) was found to be 5.1 nM.

As for `CNc1nc(Nc2cnn(S(=O)(=O)C(C)C)c2C)ncc1C(F)(F)F` [Example 218, N2-(1-(isopropylsulfonyl)-5-methyl-1H-pyrazol-4-yl)-N4-methyl-5-(trifluoromethyl) pyrimidine-2,4-diamine], the inhibition constant Ki was 8.1 nM.

As for `CCNc1nc(Nc2cnn(-c3ccc(S(C)(=O)=O)cc3)c2C)ncc1C(F)(F)F` [Example 163, N4-ethyl-N2-(5-methyl-1-(4-(methylsulfonyl)phenyl)-1H-pyrazol-4-yl)-5-(trifluoromethyl) pyrimidine-2,4-diamine], the Ki was found to be 0.3 nM.
